According to PMC4792161, “A novel pyrazole derivative protects from ovariectomy-induced osteoporosis through the inhibition of NADPH oxidase” (Scientific Reports, 2016):

Test: Direct ROS (H2O2) scavenging in vitro
Conditions: 1 mM NAC, 1 mM H2O2, control scavenger
From the text: Based on the notion that the differentiation of OCs is mediated by Nox1/2/4-dependent ROS generation, we have performed a high throughput enzyme inhibitor screening assay to identify chemical compounds having Nox1/2/4 inhibitory activity for the development of an anti-osteoporosis agent. Purified Drosophila membranes expressing human Nox1, Nox2, or Nox4 were used to monitor ROS production by determining the oxidation of lucigenin, evident as chemiluminescence, in the absence or presence of chemical compound[18]. A chemical library containing 31,000 compounds was screened to identify Nox inhibitors. […] (Fig. 1B, Supplementary Fig. S2). […] Moreover, we investigated whether Ewha-18278 can directly scavenge ROS in vitro.
Supplementary Figure S3. (A) Ewha-18278 compounds can not directly scavenge superoxide or other reactive species in vitro. ROS (H2O2) measured with lucigenin. Reaction mixtures contained 1 […]
Luminescence measured over 30 min at 37
°C with luminometor (Gloma X luminometor, Turner BioSystem). […]
the phagocytosis of zymosan. […]
incubated with FITC-zymosan particles, and internalized fluorescence was measured by flow cytometry. The data are presented as the MFI of internalized FITC. Data represent mean ± S.D. […]

CC(=O)N[C@@H](CS)C(=O)O [N-acetyl cysteine, reference compound]
change in hydrogen peroxide concentration (ROS scavenging): decrease in hydrogen peroxide concentration
